Measured values: paper PMC10778198, “First-in-Human Dose-Escalation Study of the Novel Oral Depsipeptide Class I-Targeting HDAC Inhibitor Bocodepsin (OKI-179) in Patients with Advanced Solid Tumors” (Cancers, 2023)
Where two headings read alike, the source gives them in different places.

Legend:
[1] = plasma pharmacokinetics by LC-MS/MS in patients; assay type: in vivo, human; details: for Tmax: read-out: Tmax of OKI-006 (Free)
Description: Blood samples were collected immediately prior to the first dose on cycle 1 and day 1, and then at 0.25, 0.5, 1, 2, 4, 8, and 24 h after taking OKI-179 on days 1 and 15. Additional samples were collected pre-dose and 2 and 4 h after OKI-179 administration on day 18 in later cohorts. Blood samples were stabilized with sodium fluoride and formic acid immediately after collection to arrest the additional conversion of the prodrug OKI-179 to OKI-006. Plasma was further stabilized using ascorbic acid prior to low-temperature storage.
Plasma concentrations of OKI-179 and OKI-006 were analyzed using validated liquid chromatography-mass spectrometry (LC-MS/MS) (Quintara Discovery Inc., Hayward, CA, USA). OKI-006 contains a free thiol moiety that can reversibly react with endogenous molecules in the blood and tissue, resulting in “bound” OKI-006. The unreacted OKI-006 is considered “free”. As bound OKI-006 can reversibly convert to free OKI-006 in vivo, both the free and “total” (free plus bound) concentrations of OKI-006 are considered pharmacologically relevant and were therefore quantified as part of this study. Bioanalytically, the total OKI-006 was measured by chemically converting all bound OKI-006 to free OKI-006 prior to analysis using the free OKI-006 bioanalytical method.
The AUClast was calculated from time zero to the time of the last quantifiable concentration for OKI-179, free OKI-006, and total OKI-006.

[2] = test system: HDAC1; set-up: method as in PMID 34965958; details: cell-free; cited from earlier work
[3] = test system: HDAC2; set-up: method as in PMID 34965958; details: cell-free; cited from earlier work
[4] = test system: HDAC3; set-up: method as in PMID 34965958; details: cell-free; cited from earlier work
[5] = test system: HDAC8; set-up: method as in PMID 34965958; details: cell-free; cited from earlier work
[6] = test system: Class IIa HDACs; set-up: method as in PMID 34965958; details: cited from earlier work
[7] = OKI-179 300-mg 5:2, Cycle 1 Day 1, geometric mean
[8] = OKI-179 300-mg 5:2, Cycle 1 Day 15, geometric mean

Question: What does the source list for `CC(C)[C@@H]1NC(=O)C(C)(C)NC(=O)c2csc(n2)CNC(=O)C[C@@H](/C=C/CCS)OC1=O` [OKI-006]?
Answer: AUClast of OKI-006 (Free) [1, 7]: 2790 ng·h/mL; MRAUC, OKI-006 (Free) to OKI-179 metabolite ratio based on AUClast [1, 7]: 13.3; AUClast of OKI-006 (Free) [1, 8]: 3180 ng·h/mL; Cmax of OKI-006 (Free) [1, 8]: 2220 ng/mL; MRAUC, OKI-006 (Free) to OKI-179 metabolite ratio based on AUClast [1, 8]: 10.3; Cmax and AUC versus preclinical threshold for efficacy ([1]; OKI-179 doses of 200 mg or greater): exceeded the preclinical threshold for efficacy; Tmax ([1]; human, plasma, oral, 300 mg, OKI-179 300-mg 5:2, Cycle 1 Day 1, median): 41.5 min; Tmax ([1]; human, plasma, oral, 300 mg, OKI-179 300-mg 5:2, Cycle 1 Day 15, median): 56 min; half-life ([1]; human, plasma, oral, 300 mg, OKI-179 300-mg 5:2, Cycle 1 Day 15, median, read-out: t1/2 of OKI-006 (Free) (converted)): 206 min; IC50 [2]: 1.2 nM; IC50 [3]: 2.4 nM; IC50 [4]: 2 nM; IC50 [5]: 47 nM; IC50 [6]: > 1000 nM
